Test results: the supplement of paper PMC10307832

Experiments:
Assay in all cases: relative viability (nuclei count vs DMSO), 5 days (fraction); higher = more cells survive
ABC-1 = tested on: ABC-1
How it was run: (§1)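 Lung cancer cell lines were pin-tool dosed in 1536-well plates on the day after seeding, with either a lone drug or a fixed anchor-drug dose plus five library-drug doses (not always all listed) in √10 steps. Nuclei were counted on 4× images after 5 days. Relative viability is the ratio of treated-well to vehicle-well nuclei counts, with each value a median of duplicate plates.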

COR-L23 = tested on: COR-L23
How it was run: as §1

H3255 = tested on: H3255
How it was run: as §1

HCC-15 = tested on: HCC-15
How it was run: as §1

HCC-366 = tested on: HCC-366
How it was run: as §1

HCC-827 = tested on: HCC-827
How it was run: as §1

LC-2-ad = tested on: LC-2-ad
How it was run: as §1

LXF-289 = tested on: LXF-289
How it was run: as §1

NCI-H1437 = tested on: NCI-H1437
How it was run: as §1

NCI-H1666 = tested on: NCI-H1666
How it was run: as §1

NCI-H1975 = tested on: NCI-H1975
How it was run: as §1

NCI-H2009 = tested on: NCI-H2009
How it was run: as §1

NCI-H2085 = tested on: NCI-H2085
How it was run: as §1

NCI-H2087 = tested on: NCI-H2087
How it was run: as §1

NCI-H2228 = tested on: NCI-H2228
How it was run: as §1

NCI-H23 = tested on: NCI-H23
How it was run: as §1

NCI-H661 = tested on: NCI-H661
How it was run: as §1

PC-14 = tested on: PC-14
How it was run: as §1

PC-3 [JPC-3] = tested on: PC-3 [JPC-3]
How it was run: as §1

SK-MES-1 = tested on: SK-MES-1
How it was run: as §1

UMC-11 = tested on: UMC-11
How it was run: as §1

Cc1csc(=NC2CCCCC2)n1/N=C/c1ccc(O)c(O)c1O [MIM1] + CS(=O)(=O)CCNCc1ccc(-c2ccc3ncnc(Nc4ccc(OCc5cccc(F)c5)c(Cl)c4)c3c2)o1 [Lapatinib] (partner 2 µM)
relative viability (ABC-1; first compound 0.2 µM): 1.32
relative viability (ABC-1; first compound 0.6325 µM): 1.24
relative viability (ABC-1; first compound 2 µM): 1.31
relative viability (ABC-1; first compound 6.325 µM): 1.06
relative viability (ABC-1; first compound 20 µM): 1.11
relative viability (COR-L23; first compound 0.2 µM): 0.931
relative viability (COR-L23; first compound 0.6325 µM): 1.07
relative viability (COR-L23; first compound 2 µM): 0.844
relative viability (COR-L23; first compound 6.325 µM): 0.619
relative viability (COR-L23; first compound 20 µM): 0.286
relative viability (H3255; first compound 0.2 µM): 0.274
relative viability (H3255; first compound 0.6325 µM): 0.208
relative viability (H3255; first compound 2 µM): 0.242
relative viability (H3255; first compound 6.325 µM): 0.22
relative viability (H3255; first compound 20 µM): 0.198
relative viability (HCC-15; first compound 0.2 µM): 0.844
relative viability (HCC-15; first compound 0.6325 µM): 0.554
relative viability (HCC-15; first compound 2 µM): 0.98
relative viability (HCC-15; first compound 6.325 µM): 0.415
relative viability (HCC-15; first compound 20 µM): 0.102
relative viability (HCC-366; first compound 0.2 µM): 1.01
relative viability (HCC-366; first compound 0.6325 µM): 0.905
relative viability (HCC-366; first compound 2 µM): 0.741
relative viability (HCC-366; first compound 6.325 µM): 0.548
relative viability (HCC-366; first compound 20 µM): 0.0188
relative viability (HCC-827; first compound 0.2 µM): 0.21
relative viability (HCC-827; first compound 0.6325 µM): 0.181
relative viability (HCC-827; first compound 2 µM): 0.198
relative viability (HCC-827; first compound 6.325 µM): 0.179
relative viability (HCC-827; first compound 20 µM): 0.248
relative viability (LC-2-ad; first compound 0.2 µM): 0.938
relative viability (LC-2-ad; first compound 0.6325 µM): 0.506
relative viability (LC-2-ad; first compound 2 µM): 0.888
relative viability (LC-2-ad; first compound 6.325 µM): 0.352
relative viability (LC-2-ad; first compound 20 µM): 0.132
relative viability (LXF-289; first compound 0.2 µM): 0.868
relative viability (LXF-289; first compound 0.6325 µM): 0.802
relative viability (LXF-289; first compound 2 µM): 0.895
relative viability (LXF-289; first compound 6.325 µM): 0.664
relative viability (LXF-289; first compound 20 µM): 0.592
relative viability (NCI-H1437; first compound 0.2 µM): 0.761
relative viability (NCI-H1437; first compound 0.6325 µM): 0.672
relative viability (NCI-H1437; first compound 2 µM): 0.91
relative viability (NCI-H1437; first compound 6.325 µM): 0.456
relative viability (NCI-H1437; first compound 20 µM): 0.148
relative viability (NCI-H1666; first compound 0.2 µM): 0.662
relative viability (NCI-H1666; first compound 0.6325 µM): 0.577
relative viability (NCI-H1666; first compound 2 µM): 0.507
relative viability (NCI-H1666; first compound 6.325 µM): 0.362
relative viability (NCI-H1666; first compound 20 µM): 0.206
relative viability (NCI-H1975; first compound 0.2 µM): 0.789
relative viability (NCI-H1975; first compound 0.6325 µM): 0.796
relative viability (NCI-H1975; first compound 2 µM): 0.875
relative viability (NCI-H1975; first compound 6.325 µM): 0.537
relative viability (NCI-H1975; first compound 20 µM): 0.395
relative viability (NCI-H2009; first compound 0.2 µM): 1.04
relative viability (NCI-H2009; first compound 0.6325 µM): 0.876
relative viability (NCI-H2009; first compound 2 µM): 1.1
relative viability (NCI-H2009; first compound 6.325 µM): 0.449
relative viability (NCI-H2009; first compound 20 µM): 0.133
relative viability (NCI-H2085; first compound 0.2 µM): 0.799
relative viability (NCI-H2085; first compound 0.6325 µM): 0.796
relative viability (NCI-H2085; first compound 2 µM): 0.772
relative viability (NCI-H2085; first compound 6.325 µM): 0.652
relative viability (NCI-H2085; first compound 20 µM): 0.537
relative viability (NCI-H2087; first compound 0.2 µM): 1.04
relative viability (NCI-H2087; first compound 0.6325 µM): 0.85
relative viability (NCI-H2087; first compound 2 µM): 0.998
relative viability (NCI-H2087; first compound 6.325 µM): 0.602
relative viability (NCI-H2087; first compound 20 µM): 0.511
relative viability (NCI-H2228; first compound 0.2 µM): 1.25
relative viability (NCI-H2228; first compound 0.6325 µM): 0.735
relative viability (NCI-H2228; first compound 2 µM): 1.22
relative viability (NCI-H2228; first compound 6.325 µM): 0.346
relative viability (NCI-H2228; first compound 20 µM): 0.247
relative viability (NCI-H23; first compound 0.2 µM): 1.13
relative viability (NCI-H23; first compound 2 µM): 0.734
relative viability (NCI-H23; first compound 6.325 µM): 0.88
relative viability (NCI-H23; first compound 20 µM): 0.177
relative viability (NCI-H661; first compound 0.2 µM): 0.582
relative viability (NCI-H661; first compound 0.6325 µM): 0.625
relative viability (NCI-H661; first compound 2 µM): 0.548
relative viability (NCI-H661; first compound 6.325 µM): 0.498
relative viability (NCI-H661; first compound 20 µM): 0.29
relative viability (PC-14; first compound 0.2 µM): 0.305
relative viability (PC-14; first compound 0.6325 µM): 0.332
relative viability (PC-14; first compound 2 µM): 0.363
relative viability (PC-14; first compound 6.325 µM): 0.349
relative viability (PC-14; first compound 20 µM): 0.479
relative viability (PC-3 [JPC-3]; first compound 0.2 µM): 0.486
relative viability (PC-3 [JPC-3]; first compound 0.6325 µM): 0.505
relative viability (PC-3 [JPC-3]; first compound 2 µM): 0.424
relative viability (PC-3 [JPC-3]; first compound 6.325 µM): 0.45
relative viability (PC-3 [JPC-3]; first compound 20 µM): 0.46
relative viability (SK-MES-1; first compound 0.2 µM): 0.479
relative viability (SK-MES-1; first compound 0.6325 µM): 0.441
relative viability (SK-MES-1; first compound 2 µM): 0.504
relative viability (SK-MES-1; first compound 6.325 µM): 0.416
relative viability (SK-MES-1; first compound 20 µM): 0.617
relative viability (UMC-11; first compound 0.2 µM): 1.22
relative viability (UMC-11; first compound 2 µM): 1.17
relative viability (UMC-11; first compound 6.325 µM): 0.664
relative viability (UMC-11; first compound 20 µM): 0.181
